Tests used:
[1] = test system: liver; test: Prevention of hepatic diseases: microscopic fatty liver grading in rabbits; assay type: in vivo, rabbit (New Zealand White)
Protocol: (§1) 30 three-month-old male New Zealand White rabbits (Yeonam Horticulture and Animal Husbandry College, Korea), each weighing about 2.5 to 2.6 kg, were raised under condition of temperature 20±2° C., relative humidity 55±5%, and photoperiod 12L/12D. The rabbits were divided into 5 groups and 5 groups of rabbits were fed with 5 different diets, i.e., RC4 diet (Oriental Yeast Co., Japan) containing 1% cholesterol (Control group); 1% cholesterol plus 1 mg/kg Lovastatin® (Merck, U.S.A.) (Lovastatin group); 1% cholesterol plus 0.1% 4-hydroxycinnamic acid (4-hydroxycinnamic acid group); 1% cholesterol plus 0.1% 3,4-dihydroxycinnamic acid (3,4-dihydroxycinnamic acid group); and 1% cholesterol plus 0.1% 3,4-dihydroxyhydrocinnamic acid (3,4-dihydroxyhydrocinnamic acid group), respectively. RC4 diet comprises 7.6% moisture, 22.8% crude protein, 2.8% crude fat, 8.8% crude ash, 14.4% crude cellulose and 43.6% soluble nitrogen-free substances. Cinnamic acid derivatives were purchased from Sigma Chemical Co. (St. Louis, Mo.).
(§2) The rabbits were fed for 8 weeks while being allowed free access to the diets and water.

[2] = Farmer et al. 1995; cited from earlier work
[3] = assay type: in vivo, rabbit (New Zealand White); settings: rabbits, 1% cholesterol diet plus 0.1% derivative or 1 mg/kg Lovastatin, 8 weeks
Protocol: as §1, §2
After eight weeks, the rabbits were anesthetized with an intramuscular injection of ketamine (50 mg/kg) in the femoral region and sacrificed. A blood sample was taken from the heart of each rabbit, allowed to stand for 2 hours and centrifuged at 3,000 rpm for 15 minutes and the supernatant serum was separated and stored in a freezer before use.
The chemical analysis of blood was carried out by employing a blood chemical analyzer (CIBA Corning 550 Express, USA) to determine the changes in GOT, GPT, total cholesterol, HDL-cholesterol and triglyceride levels.

[4] = test system: main artery; test: Analysis for fatty streak in the main artery of rabbits; assay type: in vivo, rabbit (New Zealand White)
Protocol: Cinnamic acid derivatives were purchased from Sigma Chemical Co. (St. Louis, Mo.). The rabbits were fed for 8 weeks while being allowed free access to the diets and water. The chest of each of the rabbits sacrificed in Step 2 was incised. […] The main artery was incised in the middle along the longitudinal axis and pinned to a dish. The moist artery was photographed and, then, the staining of fatty streaks was carried out in accordance with the method of […]., et al. (J. Lab. Clin. Med., 121, 103-110(1993)) as follows. A part of the incised main artery was washed three times with anhydrous propylene glycol for 2 min. and stained for 30 min. with a saturated solution of Oil Red O (ORO, Sigma Co.) dissolved in propylene glycol. Thereafter, the artery was washed twice with 85% propylene glycol for 3 min. to remove remaining staining solution and, then washed with physiological saline. The artery was photographed and the photograph was traced. The area of stained region (fatty streak region) was determined with an image analyzer (LEICA, Q-600, Germany) and its proportion (%) to the total arterial area was calculated.

CC[C@H](C)C(=O)O[C@H]1C[C@@H](C)C=C2C=C[C@H](C)[C@H](CC[C@@H]3C[C@@H](O)CC(=O)O3)[C@H]21 [Lovastatin, reference compound]
microscopic features of the liver ([1]; FIGS. 2A-2E, control: many cells containing excessive fat around the central vein): many cells containing excessive fat were observed around the central vein
fatty liver grade (1+ to 4+) ([1]; grades 1+(0-25%), 2+(26-50%), 3+(51-75), 4+(76-100%), rabbits, 8 weeks, Control 3.2 ± 0.3): 3.4 ± 0.5
side effects [2]: increase in creatine kinase in the liver and rhabdomyolysis
HDL/TC ([3]; Control 2.5 ± 0.4): 4.9 ± 2.6%
HDL-C (High density lipoprotein-cholesterol) ([3]; Control 50 ± 11): 58 ± 23 mg/dL
TG (Triglyceride) ([3]; Control 170 ± 30): 153 ± 95 mg/dL
TC (Total cholesterol) ([3]; Control 1995 ± 472): 1446 ± 263 mg/dL
macrophage-lipid complex on the arterial endothelium ([4]; FIGS. 1A-1E, control: a thick layer): no or very thin layers of macrophage-lipid complex
Fatty streak ([4]; proportion of total arterial area, Oil Red O, rabbits, 8 weeks, Control 80 ± 8): 15 ± 3%

Source: patent US6313171A, “Method for preventing or treating elevated blood lipid level-related diseases by administering cinnamic acid derivatives” (Korea Research Institute of Bioscience & Biotechnology, priority 1998, dated 2001)
